According to the NIST ThermoML archive (doi:10.1016/j.jct.2018.07.013):

Key:
[1] = xn = mol fraction of the nth substance listed; details: 298.15 K, 100 kPa, Liquid; for speed of sound: Frequency=3 MHz, Single path-length method; for mass density: Vibrating tube method
[2] = excess molar enthalpy (molar enthalpy of mixing); xn = mol fraction of the nth substance listed; details: 298.15 K, 100 kPa, Liquid, Power-compensation calorimetry
[3] = 298.15 K, 100 kPa, Liquid; for speed of sound: Frequency=3 MHz, Single path-length method; for mass density: Vibrating tube method

CCOC(=O)C(C)O (stereo not drawn) [DL-ethyl lactate] + CCCCO
Details | excess molar enthalpy, [2] [kJ/mol] | mass density, [1] [kg/m3] | speed of sound, [1] [m/s]
x1 = 0.048 | 0.197 | – | –
x1 = 0.0502 | – | 819.65 | 1241.3
x1 = 0.0914 | – | 830.65 | 1242.1
x1 = 0.103 | 0.352 | – | –
x1 = 0.1929 | – | 856.89 | 1244.7
x1 = 0.233 | 0.567 | – | –
x1 = 0.3041 | – | 884.31 | 1248.3
x1 = 0.314 | 0.625 | – | –
x1 = 0.4061 | – | 908.31 | 1252.3
x1 = 0.414 | 0.645 | – | –
x1 = 0.4991 | – | 929.27 | 1256
x1 = 0.527 | 0.61 | – | –
x1 = 0.6037 | – | 951.84 | 1260.8
x1 = 0.626 | 0.53 | – | –
x1 = 0.707 | – | 973.11 | 1265.9
x1 = 0.714 | 0.415 | – | –
x1 = 0.7968 | – | 990.82 | 1270.1
x1 = 0.82 | 0.246 | – | –
x1 = 0.8927 | – | 1008.98 | 1274.6
x1 = 0.91 | 0.125 | – | –
x1 = 0.951 | 0.054 | – | –
x1 = 0.9527 | – | 1019.97 | 1277.3
x1 = 1 | – | 1028.45 | 1279.3

COC(=O)C(C)O (stereo unspecified) [methyl 2-hydroxypropanoate] + CCO
Details | excess molar enthalpy, [2] [kJ/mol] | mass density, [1] [kg/m3] | speed of sound, [1] [m/s]
x1 = 0.0492 | – | 809.35 | 1158
x1 = 0.056 | 0.116 | – | –
x1 = 0.0968 | – | 831.45 | 1172.3
x1 = 0.104 | 0.208 | – | –
x1 = 0.185 | 0.335 | – | –
x1 = 0.2099 | – | 879.28 | 1203.7
x1 = 0.225 | 0.39 | – | –
x1 = 0.281 | 0.439 | – | –
x1 = 0.3161 | – | 918.72 | 1229.4
x1 = 0.3921 | – | 944.17 | 1245.2
x1 = 0.464 | 0.461 | – | –
x1 = 0.4987 | – | 976.29 | 1266.1
x1 = 0.543 | 0.425 | – | –
x1 = 0.5872 | – | 1000.2 | 1283.3
x1 = 0.666 | 0.345 | – | –
x1 = 0.6963 | – | 1026.72 | 1300.8
x1 = 0.794 | 0.238 | – | –
x1 = 0.8007 | – | 1049.53 | 1316.4
x1 = 0.8814 | – | 1065.65 | 1326.5
x1 = 0.903 | 0.118 | – | –
x1 = 0.952 | 0.063 | – | –
x1 = 0.9535 | – | 1079.11 | 1334.4
x1 = 1 | – | 1087.35 | 1339.3

CO [methanol]
[3]
Details | mass density [kg/m3] | speed of sound [m/s]
– | 786.53 | 1104

CCCO [propan-1-ol]
[3]
Details | mass density [kg/m3] | speed of sound [m/s]
– | 799.66 | 1206

CCOC(=O)C(C)O (stereo not drawn) [DL-ethyl lactate] + CCO
Details | excess molar enthalpy, [2] [kJ/mol] | mass density, [1] [kg/m3] | speed of sound, [1] [m/s]
x1 = 0.0522 | – | 809.88 | 1158.1
x1 = 0.054 | 0.0739 | – | –
x1 = 0.0957 | – | 828.74 | 1169.7
x1 = 0.114 | 0.141 | – | –
x1 = 0.1946 | – | 866.53 | 1192.8
x1 = 0.225 | 0.21 | – | –
x1 = 0.2902 | – | 897.43 | 1211.3
x1 = 0.312 | 0.232 | – | –
x1 = 0.4011 | – | 927.58 | 1229.3
x1 = 0.42 | 0.24 | – | –
x1 = 0.4995 | – | 950.3 | 1240.8
x1 = 0.511 | 0.225 | – | –
x1 = 0.6076 | – | 971.75 | 1252.8
x1 = 0.635 | 0.191 | – | –
x1 = 0.6931 | – | 986.54 | 1261.4
x1 = 0.737 | 0.146 | – | –
x1 = 0.7965 | – | 1002.43 | 1268.7
x1 = 0.829 | 0.0908 | – | –
x1 = 0.9047 | – | 1017.03 | 1275.2
x1 = 0.93 | 0.0406 | – | –
x1 = 0.9511 | – | 1022.75 | 1277.3
x1 = 0.96 | 0.02 | – | –
x1 = 1 | – | 1028.45 | 1279.3

COC(=O)C(C)O (stereo unspecified) [methyl 2-hydroxypropanoate] + CCCO
Details | excess molar enthalpy, [2] [kJ/mol] | mass density, [1] [kg/m3] | speed of sound, [1] [m/s]
x1 = 0.045 | – | 815.93 | 1211.5
x1 = 0.05 | 0.191 | – | –
x1 = 0.1025 | – | 836.2 | 1218.9
x1 = 0.104 | 0.348 | – | –
x1 = 0.2047 | – | 870.81 | 1232.5
x1 = 0.207 | 0.562 | – | –
x1 = 0.3 | – | 901.52 | 1245.4
x1 = 0.309 | 0.676 | – | –
x1 = 0.4004 | – | 932.31 | 1259.8
x1 = 0.411 | 0.721 | – | –
x1 = 0.501 | 0.713 | – | –
x1 = 0.5012 | – | 961.71 | 1274.1
x1 = 0.5911 | – | 986.71 | 1286.9
x1 = 0.607 | 0.655 | – | –
x1 = 0.6935 | – | 1013.88 | 1300.8
x1 = 0.707 | 0.556 | – | –
x1 = 0.7978 | – | 1040.2 | 1315.1
x1 = 0.802 | 0.421 | – | –
x1 = 0.9 | – | 1064.67 | 1327.6
x1 = 0.902 | 0.222 | – | –
x1 = 0.945 | – | 1075.04 | 1333.1
x1 = 0.95 | 0.108 | – | –
x1 = 1 | – | 1087.35 | 1339.3

CO [methanol] + COC(=O)C(C)O
[1], x2 = 0
Details | mass density [kg/m3] | speed of sound [m/s]
– | 786.53 | 1104
